Test results published in patent US9453226B2, “Protection of cells from Alu-RNA-induced degeneration and inhibitors for protecting cells” (UNIVERSITY OF KENTUCKY RESEARCH FOUNDATION, priority 2011, dated 2016).

How the values were obtained:
MyD88 = MyD88 knockdown in mouse RPE cells; format: cell-based; conditions: compared to control siRNA
Excerpt: Total RNA was extracted from tissues or cells using Trizol reagent (Invitrogen) according to manufacturer's recommendations, DNase treated and reverse transcribed (QuantiTect, Qiagen). The RT products (cDNA) were amplified by real-time quantitative PCR (Applied Biosystems 7900 HT Fast Real-Time PCR system) with Power SYBR green Master Mix. […] For negative controls, no RT products were used as templates in the QPCR and verified by the absence of gel-detected bands. Relative expressions of target genes were determined by the 2^−ΔΔCt method.
Tissues or cells were homogenized in lysis buffer (10 mM Tris base, pH 7.4, 150 mM NaCl, 1 mM EDTA, 1 mM EGTA, 1% Triton X-100, 0.5% NP-40, protease and phosphatase inhibitor cocktail (Roche)). Protein concentrations were determined using a Bradford assay kit (Bio-Rad) with bovine serum albumin as a standard. […] Protein loading was assessed by immunoblotting using an anti-Vinculin antibody (1:1,000; Sigma-Aldrich). […]

RPE [1] = experiment: pAlu-induced RPE degeneration in wild-type mice, inhibitors given intravitreously; format: in vivo; conditions: WT mice, subretinal pAlu, inhibitor intravitreous, fundus photographs and ZO-1 flat mounts
Protocol: (§1) Subretinal injection and imaging. Subretinal injections (1 μL) were performed using a Pico-Injector (PLI-100, Harvard Apparatus). Plasmids were transfected in vivo using 10% Neuroporter (Genlantis). Fundus imaging was performed on a TRC-50 IX camera (Topcon) linked to a digital imaging system (Sony). RPE flat mounts were immunolabeled using antibodies against zonula occludens-1 (Invitrogen).
Retinal photographs of dilated mouse eyes were taken with a TRC-50 IX camera (Topcon) linked to a digital imaging system (Sony).
Human eyes fixed in 2-4% paraformaldehyde were prepared as eyecups, cryoprotected in 30% sucrose, embedded in optimal cutting temperature compound (Tissue-Tek OCT; Sakura Finetek), and cryosectioned into 10 μm sections. Depigmentation was achieved using 0.25% potassium permanganate and 0.1% oxalic acid. Immunohistochemical staining was performed with the rabbit antibody against NLRP3 (1:100, Sigma Aldrich) or rabbit antibody against Caspase-1 (prediluted, AbCam). Isotype IgG was substituted for the primary antibody to assess the specificity of the staining. Bound antibody was detected with biotin-conjugated secondary antibodies, followed by incubation with ABC reagent and visualized by Vector Blue (Vector Laboratories). Levamisole (Vector Laboratories) was used to block endogenous alkaline phosphatase activity. Slides were washed in PBS, counterstained with neutral red (Fisher Scientific), rinsed with deionized water, air dried, and then mounted in Vectamount (Vector Laboratories). Fluorescent labeling of human tissue was performed with the rabbit antibody against PYCARD (1:50, Clone N-15, Santa Cruz Biotechnology) Immunolabeling was visualized by fluorescently conjugated anti-rabbit secondary antibody (Invitrogen). Tissue autofluorescence was quenched by incubating the sections in 0.3% Sudan black (Fisher Scientific). Sections were mounted in Vectashield with DAPI (Vector Laboratories). Mouse RPE/choroid flat mounts were fixed with 4% paraformaldehyde or 100% methanol, stained with rabbit antibodies against human zonula occludens-1 (1:100, Invitrogen) and visualized with Alexa594 (Invitrogen). All images were obtained using the Leica SP-5 or Zeiss Axio Observer Z1 microscopes.
(§2) Subretinal injections (1 μL) in mice were performed using a Pico-Injector (PLI-100, Harvard Apparatus). In vivo transfection of plasmids coding for two different Alu sequences (pAlu) or empty control vector (pNull) (Bennett et al., 2008; Kaneko et al., 2011; Shaikh et al., 1997) was achieved using 10% Neuroporter (Genlantis). AAV1-BEST1-Cre (Alexander and Hauswirth, 2008) or AAV1-BEST1-GFP were injected at 1.0×10^11 pfu/mL and in vitro transcribed Alu RNA was injected at 0.3 mg/mL.
siRNAs formulated in siRNA buffer (20 mM KCL, 0.2 mM MgCl2 in HEPES buffer at pH 7.5; Dharmacon) or phosphate buffered saline (PBS; Sigma-Aldrich); the TLR4 antagonist Ultra Pure Rhodobacter sphaeroides LPS (LPS-RS, InvivoGen), a peptide inhibitor of MyD88 homodimerization IMG-2005 (IMGENEX), control inhibitor (IMGENEX), recombinant IL-18 (Medical & Biological Laboratories), neutralizing rat antibodies against mouse IL-1β (IMGENEX), neutralizing rat antibodies against mouse IL-18 (Medical & Biological Laboratories), isotype control IgGs (R&D Systems or eBioscience as appropriate), Caspase-1 inhibitor Z-WEHD-FMK (R&D Systems), Caspase control inhibitor Z-FA-FMK (R&D Systems), DPI (Enzo Life Sciences), Mito-TEMPO (Enzo Life Sciences), MitoQ and dTPP (both adsorbed to cyclodextrin and provided by M.P. Murphy, MRC Mitochondrial Biology Unit), and gp91ds-tat and scrambled gp91 ds-tat (both Anaspec), were dissolved in phosphate buffered saline (PBS; Sigma-Aldrich) or dimethyl sulfoxide (DMSO; Sigma-Aldrich), and injected into the vitreous humor in a total volume of 1 μL with a 33-gauge Exmire microsyringe (Ito Corporation). […] As a control, Luc siRNA-chol (17+2 nt) was used with identical dosages. […]

phagosomal ROS = experiment: Phagosomal ROS in human RPE cells (Fc OXYBURST Green); format: cell-based
Protocol: Cellular ROS production was assessed using the ROS-specific probe 2′7′-dichlorodihydrofluorescin diacetate (H2DCFDA, BioChemica, Fluka). Mitochondrial ROS production was assessed using MitoSOX™ Red (Invitrogen). Sub-confluent human RPE cells were transfected with pNull or pAlu. After 24 h cells were loaded for 10 min at 37° C. with 10 μM H2DCFDA or MitoSOX™ Red (Invitrogen) mitochondrial superoxide indicator for live-cell imaging and washed twice with PBS. For H2DCFDA, fluorescence was recorded in 96-well plate using with a Synergy 4 reader (Biotek) using a FITC filter (excitation 485 nm, emission 538 nm). To visualize respiring mitochondria for colocalization with the mitochondrial ROS signal, after PBS wash cells were incubated with MitoTracker Deep Red™ (Invitrogen) for 30 min at 37° C. and then washed twice with PBS. The fluorescent signals were detected using Leica SP-5 or Zeiss Axio Observer Z1 microscopes. Phagosomal ROS production was assessed using the Fc-OXYBURST Green™ assay (Invitrogen). Sub-confluent human RPE cells were transfected with pNull or pAlu, or treated with PMA (0.5 μg/ml; Sigma-Aldrich). […] The total fluorescence from the cells was measured immediately after adding Fc-OXYBURST Green™ with a Synergy 4 reader (Biotek) using FITC filter (excitation 485 nm, emission 538 nm).

RPE [2] = experiment: RPE degeneration after subretinal delivery in mice (wild-type and deficient strains); format: in vivo
Protocol: as §1
All animal experiments were approved by institutional review committees and in accordance with the Association for Research in Vision and Ophthalmology Statement for the Use of Animals in Ophthalmic and Visual Research. Wild-type C57BL/6J, Cybb^−/−, Tlr3^−1−, Tlr4^−/− (C57BL/10ScNJ), Trif^−/− (Ticam1^Lps2), Ifng^−/−, Ifngr1^−/−, Il1r1^−1−, Il18r1^−1−, Myd88^f/f, and Dicer1^f/f mice were purchased from The Jackson Laboratory. Casp1^−1−, Nbp3^−/−, and Pycard^−/− mice have been previously described (Kanneganti et al., 2006). Unc93b1 mutant mice were generously provided by B. A. Beutler via K. Fitzgerald. Myd88^−/− and Tlr7^−/− mice were generously provided by S. Akira via T. Hawn and D. T. Golenbock. Mda5^−/− mice were generously provided by M. Colonna. […] Mavs^−/− mice were generously provided by Z. Chen via K. Fitzgerald. For all procedures, anesthesia was achieved by intraperitoneal injection of 100 mg/kg ketamine hydrochloride (Ft. Dodge Animal Health) and 10 mg/kg xylazine (Phoenix Scientific), and pupils were dilated with topical 1% tropicamide (Alcon Laboratories).
as §2
Bone marrow transplantation was used to create Myd88^−/− chimera mice wherein the genetic deficiency of Myd88 was confined to either circulating cells (Myd88^−/− →WT) or nonhematopoietic tissue (WT→Myd88^−/−). Briefly, bone marrows were collected from femur and tibia of congenic WT or Myd88^−/− donor mice by flushing with RPMI1640. After two washing steps, cells were resuspended in RPMI1640. 1×10^7 cells in 150 μL of RPMI1640 were injected into the tail vein of irradiated […] mice. Two chimera groups were generated: WT→Myd88^−/− (WT cells into Myd88^−/− mice) and Myd88→WT (Myd88 cells into WT mice). 2 months after bone marrow transfer, mice were injected subretinally with Alu RNA, vehicle, pAlu, or pNull, and monitored for RPE degeneration 7 days later. […]

Caspase-8 = Caspase-8 activation in the RPE of wild-type mice (fluorometric assay); format: in vivo; conditions: subretinal injection
Protocol: RPE tissues were homogenized in lysis buffer (10 mM Tris base, pH 7.4, 150 mM NaCl, 1 mM EDTA, 1 mM EGTA, 1% Triton X-100, 0.5% NP-40, protease and phosphatase inhibitor cocktail (Roche)). Protein concentrations were determined using a Bradford assay kit (Bio-Rad) with bovine serum albumin as a standard. The […] activity was measured using Caspase-8 Fluorimetric Assay (R&D) in according to the manufacturer's instructions.

## 5′-CAGAGCAAGGAAUGUGAdTdT-3′ [cholesterol-conjugated Myd88 siRNA]
MyD88
  target gene and protein abundance (MyD88): reduces
RPE [1]
  pAlu-induced RPE degeneration: inhibited
RPE [1]; listed as MyD88-targeting short interfering RNA
  pAlu-induced RPE degeneration: inhibited RPE degeneration

## CCCCCCCCCCCCCC(=O)O[C@@H]1[C@@H](C)[C@@]2(O)[C@@H](C=C(CO)C[C@]3(O)C(=O)C(C)=C[C@@H]23)[C@@H]2C(C)(C)[C@]12OC(C)=O [PMA, phorbol myristate acetate]
Phagosomal ROS
  phagosomal ROS: induced phagosomal ROS

## Recombinant IL-18: recombinant IL-18 (Medical & Biological Laboratories)
RPE [2]; CD95−/− (Fas lpr) mice
  RPE degeneration after subretinal delivery: did not induce RPE degeneration
RPE [2]; Casp1−/− mice
  RPE degeneration after subretinal delivery: induced RPE degeneration
RPE [2]; Faslg−/− (Fasl gld) mice
  RPE degeneration after subretinal delivery: did not induce RPE degeneration
RPE [2]; WT mice
  RPE degeneration after subretinal delivery: induced RPE degeneration
Caspase-8; listed as IL-18
  activation of Caspase-8: induced activation of caspase-8
Caspase-8; listed as recombinant IL-18
  activation of Caspase-8: induced activation of Caspase-8
